Laboratory results from ChEMBL document CHEMBL1949604, “Drug-like properties: guiding principles for the design of natural product libraries” (J Nat Prod, 2012).

Columns and labels:
[1] = test system: Trypanosoma brucei brucei; experiment: Antitrypanosomal activity against Trypanosoma brucei brucei at 80 uM; assay type: functional
[2] = test system: Trypanosoma brucei brucei; experiment: Antitrypanosomal activity against Trypanosoma brucei brucei; assay type: functional, organism-based

| Structure (SMILES) | inhibition at 80 µM [1] | IC50 [2] |
| --- | --- | --- |
| COC1=C(Br)[C@H](O)[C@@]2(C=C1Br)CC(C(=O)NCCCn1cnc(CCNC(=O)C3=NO[C@]4(C=C(Br)C(OC)=C(Br)[C@@H]4O)C3)c1)=NO2 [PSEUDOCERATINAZOLE A] | 80% | – |
| c1ccc2c(c1)Nc1cc3cccnc3c3nccc-2c13 | – | 77 nM |
| O=C1c2cccnc2-c2nccc3c2c1nc1ccccc13 [ASCIDIDEMIN] | – | 32 nM |
| c1ccc2c(c1)nc1c3nc4ccccc4c4ccnc(c5nccc2c51)c43 [EILATIN] | – | 1330 nM |
